According to PubChem BioAssay (NCI):
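1) Cells in 96-well plates. 2) Compound, 48 h, 5 concentrations. 3) Linear interpolation between surrounding doses. 4) Unreached endpoint = highest concentration. Definition used: TGI = concentration required for complete inhibition of growth.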

Key:
Experiment in all cases: inhibition of tumour cell growth, NCI panel, 48 h
ACHN renal = system: ACHN renal
KM12 colon = system: KM12 colon
RXF 393 renal = system: RXF 393 renal
T-47D breast = system: T-47D breast
OVCAR-8 ovarian = system: OVCAR-8 ovarian
LOX IMVI melanoma = system: LOX IMVI melanoma
COLO 205 colon = system: COLO 205 colon
NCI-H226 lung = system: NCI-H226 lung
SK-MEL-28 melanoma = system: SK-MEL-28 melanoma
SF-268 CNS = system: SF-268 CNS
NCI/ADR-RES ovarian = system: NCI/ADR-RES ovarian
SNB-19 CNS = system: SNB-19 CNS
NCI-H522 lung = system: NCI-H522 lung
U251 CNS = system: U251 CNS
A549 NSCLC = system: A549 NSCLC
NCI-H23 lung = system: NCI-H23 lung
MDA-MB-435 = system: MDA-MB-435
IGROV1 ovarian = system: IGROV1 ovarian
EKVX NSCLC = system: EKVX NSCLC
DU-145 prostate = system: DU-145 prostate
MCF7 breast = system: MCF7 breast
786-0 renal = system: 786-0 renal
HCT-116 colon = system: HCT-116 colon
SK-MEL-5 melanoma = system: SK-MEL-5 melanoma
BT-549 breast = system: BT-549 breast
HOP-92 NSCLC = system: HOP-92 NSCLC
K-562 leukemia = system: K-562 leukemia
OVCAR-3 ovarian = system: OVCAR-3 ovarian
OVCAR-5 ovarian = system: OVCAR-5 ovarian
OVCAR-4 ovarian = system: OVCAR-4 ovarian
SNB-75 CNS = system: SNB-75 CNS
CAKI-1 renal = system: CAKI-1 renal
HT29 colon = system: HT29 colon
MOLT-4 leukemia = system: MOLT-4 leukemia
A498 renal = system: A498 renal
RPMI-8226 leukemia = system: RPMI-8226 leukemia
UACC-62 melanoma = system: UACC-62 melanoma
HCT-15 colon = system: HCT-15 colon
TK-10 renal = system: TK-10 renal
M14 melanoma = system: M14 melanoma
PC-3 prostate = system: PC-3 prostate
HS 578T breast = system: HS 578T breast
MDA-N = system: MDA-N
SW-620 colon = system: SW-620 colon
CCRF-CEM leukemia = system: CCRF-CEM leukemia
HOP-62 NSCLC = system: HOP-62 NSCLC
MALME-3M melanoma = system: MALME-3M melanoma
SR leukemia = system: SR leukemia
SF-539 CNS = system: SF-539 CNS
MDA-MB-231 breast = system: MDA-MB-231 breast
NCI-H460 lung = system: NCI-H460 lung
SN12C renal = system: SN12C renal
SK-OV-3 ovarian = system: SK-OV-3 ovarian
UACC-257 melanoma = system: UACC-257 melanoma
SK-MEL-2 melanoma = system: SK-MEL-2 melanoma
SF-295 CNS = system: SF-295 CNS
UO-31 renal = system: UO-31 renal

Measured: TGI

O=C(O)CCN1C(=S)CSC1=S
not listed: UO-31 renal
> 100 µM: all other assays above

Cc1ccc(N=Nc2c(O)ccc3ccccc23)c(C)c1
not listed: ACHN renal | NCI-H522 lung | EKVX NSCLC | MCF7 breast | CCRF-CEM leukemia | MALME-3M melanoma | SR leukemia | SF-539 CNS | NCI-H460 lung
> 100 µM: all other assays above
